Results reported in EP0022634A1, “Acylated indole derivatives, processes for their preparation and pharmaceutical compositions and drugs comprising them” (TEIJIN LIMITED, priority 1979, dated 1981).
In brackets after ≈: the same amount, converted by molar mass.

Legend:
platelet aggregation [1] = experiment: extra vivo platelet aggregation inhibiting activity after oral administration, collagen as aggregating agent; assay type: in vivo, guinea pigs; conditions: Cavia porcellus, po
Procedure: The collagent floating solution made by Hormone Company of west Germany was diluted with physiological saline to a concentration of 100 µg/ml for use in the test.
(§1) The platelet aggregation inhibiting activities extra vivo of drugs sampled at random were examined using guinea pigs.
(§2) The drugs were used dissolved in propylene glycol to a concentration of 1 mg/ml (when the dosage was 1 mg/kg), 10 mg/ml (when the dosage was 10 mg/kg), and 30 mg/ml (when the dosage was 30 mg/kg). The drugs were administered orally to male Hartley guinea pigs (three in a group) having a body weight of 300 to 350 g. Propylene glycol was administered to a control group.
(§3) One hour, or 4 hours after the administration, citrated blood was taken out from the subject by cardiac puncture.
(§4) The guinea pigs were caused to fast overnight before use.
(§5) The inhibiting rate of the test drugs was measured as follows: • 450 µℓ of PRP was put into a cuvette of an aggregometer, and then 50 µℓ of the aggregating agent was added. The aggregation curve was recorded for 3 minutes, and the maximum degree of aggregation was measured. As a blank, the maximum degree of aggregation of PRP of the group of guinea pigs to which propylene glycol had been administered was measured. The rate of inhibition was calculated from the following equation. [formula]
(§6) As the aggregating agent, 0.03 mM (final concentration sodium arachidonate and 5 µg/ml (final concentration) collagen floating solution were used.
For details of the extra vivo platelet aggregation inhibiting test, see Davis. H. M., Phyllis, J., Paul, K and Terry, W.: Thromb. Res. 11, 217-226 (1977) and Anderson R. E. and Foulks J. G.: Thromb. Haemos. 36, 343-359 (1976).

[2] = tested on: mucous membrane of the stomach; experiment: Action of causing trouble to the mucous membrane of the stomach (ulcer index); assay type: in vivo, Male S.D. rats; conditions: for Incidence / Ulcer Index (mm ± S.E.): fasted rats
Procedure: Male S.D. rats (7 weeks old) were caused to fact for 24 hours while allowing them to drink water freely. A test compound dissolved in propylene glycol was orally administered to these rats, and these rats were kept while causing them to fast. Then, the rats were knocked out to death, and lesions generated in the stomach were measured in the following manner.
Ten minutes before killing the rats, 1% Evans blue was intravenously injected to the rats in a dose of 0.5 ml/rat to stain their body. Then, the rats were knocked out to death, and the stomack was taken out from each rat. 12 ml of 1% formalin was injected into the stomack to inflate it. The stomach was then dipped for more than 10 minutes in a 1% formalin solution, and fixed. After fixing, the stomach was incised along the glandular portion, and the length of a dye-leaked portion that occurred in the stomach was measured under a solid microscope, and defined as the ulcer index (mm).
For details of the test on the action of causing trouble to the mucous membrane of the stomach, see E. Adami, E. Marazzi-Uberti, and C. Turba, Arch, int. Pharmacadyn., 147, 113 (1964).

platelet aggregation [3] = experiment: in vitro platelet aggregation inhibiting activity (sodium arachidonate as aggregating agent); assay type: cell-based; conditions: Cavia porcellus, Platelet, guinea pigs PRP, final concentration 0.1 millimole, minimum final concentration whose inhibiting rate exceeded 50 %, read-out: IC50
Procedure: The platelet aggregation inhibiting activities in vitro of test drugs including the acylated indole derivatives of this invention were assayed using guinea pigs PRP.
As an aggregating agent, sodium arachidonate having a final concentration of 0.1 millimole was used.
The citrated blood was centrifuged at 1000 rpm for 10 minutes at room temperature, and the supernatant liquid (PRP) was separated.
The resulting PRP was stored at room temperature, and used as early as possible. PRP stored for more than 4 hours was not used.
A compound having a free carboxylic acid as a residue, such as Indomethacin and Ibprofen, was dissolved in O.lM NaHC03 to provide a sodium salt solution having a concentration of 10 mg/ml. The solution was similarly diluted with physiological saline to prepare a solution of a test drug.
The solution was diluted with physiological saline to form a 1mM solution which was used in the test.
50 µℓ of physiological saline and 50 µℓ of the aggregating agent solution were added to 400 µℓ of PRP which had been warmed in a cuvette at 37°C in an aggregometer to aggregate the platelet. The aggregation curve was recorded for 3 minutes by an aggregometer (a product of Bryston Company). The maximum degree of aggregation in this platelet aggregation was defined as the maximum degree of aggregation in the blank.
Then, 50 µℓ of a 1mM solution of sodium arachidonate was added, and the platelet aggregation curve was recorded in the same way as in (1) above. From the curve, the maximum degree of aggregation was calculated, and the inhibiting rate was calculated in accordance with the following equation. Maximum degree of aggregation Inhibiting 100 - in the Ibprofen-added system 100 rate (%) Maximum degree of aggregation in the blank
If these inhibiting rates are not attained, the concentration of the solution of sodium arachidonate is not suitable, and therefore, its concentration should be re-adjusted, and the test shall be performed again.
50 µℓ of the test compound solution was added to 400 µℓ of PRP, and the mixture was pre-incubated in the same way as in(2) above. Then, 50 µℓ of the solution of sodium arachidonate having its concentration adjusted in (2) was added, and the aggregation curve was recorded for 3 minutes. The maximum degree of aggregation of platelet within this period was measured, and the rate of inhibition was calculated from the following equation. […] Maximum degree of aggregation Inhibiting _ 100 - in the drug-added system x 100 rate (%) Maximum degree of aggregation in the blank
For details of the in vitro platelet aggregation inhibiting test, see H. M. Davis, J. Phyllis, K. Paul and W. Terry: Thromb. […] Haemos.

platelet aggregation [4] = experiment: extra vivo platelet aggregation inhibiting activity after oral administration, sodium arachidonate as aggregating agent; assay type: in vivo, guinea pigs; conditions: Cavia porcellus, 0.03 mM sodium arachidonate; for inhibition at 1 mg/kg: oral dosage 1 mg/kg; for inhibition at 10 mg/kg: oral dosage 10 mg/kg
Procedure: as §1, §2, §3, §4, §5, §6
For details of the extra vivo platelet aggregation inhibiting test, see Davis. H. M., Phyllis, J., Paul, K and Terry, W.: Thromb. […] Haemos.

platelet aggregation [5] = experiment: in vitro platelet aggregation inhibiting activity (sodium arachidonate as aggregating agent); assay type: cell-based, guinea pigs; conditions: general statement on investigations of the present inventors; test not specified
[6] = 1 h, read-out: Rate of inhibition of platelet aggregation, Collagen, After 1 hour
[7] = 4 h, read-out: Rate of inhibition of platelet aggregation, Collagen, After 4 hours
[8] = oral dosage 100 mg/kg in propylene glycol
[9] = oral dosage 200 mg/kg in propylene glycol
[10] = oral dosage 400 mg/kg in propylene glycol
[11] = blood taken 1 hour after administration, read-out: Rate of inhibition of platelet aggregation, Sodium arachidonate, After 1 hour
[12] = blood taken 4 hours after administration, read-out: Rate of inhibition of platelet aggregation, Sodium arachidonate, After 4 hours

Row | Compound | Incidence [2, 10] | Ulcer Index (mm ± S.E.) [2, 10] | IC50 (platelet aggregation [3]) | inhibition at 10 mg/kg (platelet aggregation [4]; [11]) | inhibition at 10 mg/kg (platelet aggregation [4]; [12]) | inhibition at 10 mg/kg (platelet aggregation [1]; [6]) | inhibition at 10 mg/kg (platelet aggregation [1]; [7]) | also measured
1 | COCC(C)n1c(C)c(C(=O)c2ccccc2)c2ccccc21 (centres unmarked) [(300), 3-Benzoyl-1-(1-methoxy-2-propyl)-2-methylindole] | 66.7% | 1.4 ± 0.5 mm | 0.055 µg/mL (≈ 0.179 µM) | – | – | – | – | inhibition at 1 mg/kg (platelet aggregation [1]; [6]): 100%; inhibition at 1 mg/kg (platelet aggregation [1]; [7]): 71.4%; Incidence [2, 8]: 40%; Ulcer Index (mm ± S.E.) [2, 8]: 1.1 ± 0.5 mm; Incidence [2, 9]: 55.6%; Ulcer Index (mm ± S.E.) [2, 9]: 1.2 ± 0.3 mm; inhibition at 1 mg/kg (platelet aggregation [4]; [11]): 51.3%; inhibition at 1 mg/kg (platelet aggregation [4]; [12]): 67.5%
2 | CCOCC(C)n1c(C)c(C(=O)c2ccccc2)c2ccccc21 (centres unmarked) [(302), 3-Benzoyl-1-(1-ethoxy-2-propyl)-2-methylindole] | 50% | 0.9 ± 0.3 mm | 0.055 µg/mL (≈ 0.171 µM) | 100% | 100% | – | – | Incidence [2, 9]: 33.3%; Ulcer Index (mm ± S.E.) [2, 9]: 0.3 ± 0.2 mm
3 | COCC(C)n1c(C)c(C(=O)c2ccccc2)c2cc(OC)ccc21 (centres unmarked) [(318), 3-Benzoyl-5-methoxy-1-(1-methoxy-2-propyl)-2-methylindole] | – | – | 0.75 µg/mL (≈ 2.22 µM) | 100% | 14% | 97.7% | 0.5% | –
4 | CCSCC(C)n1c(C)c(C(=O)c2ccccc2)c2ccccc21 (centres unmarked) [(400), 3-Benzoyl-1-(1-ethylthio-2-propyl)-2-methylindole] | – | – | 0.5 µg/mL (≈ 1.48 µM) | 100% | 67.4% | 100% | 100% | –
5 | Cc1c(C(=O)c2ccccc2)c2ccccc2n1C(C)CSc1ccccc1 (centres unmarked) [(401), 3-Benzoyl-2-methyl-1-(1-phenylthio-2-propyl)-indole] | – | – | 0.25 µg/mL (≈ 0.648 µM) | 100% | 100% | 100% | 100% | –
6 | Cc1c(C(=O)c2ccccc2)c2ccccc2n1C(C)CSc1ccccn1 (centres unmarked) [(405), 3-Benzoyl-2 methyl-1-[1-(2-pyridylthio)-2-propyl]indole] | – | – | 0.5 µg/mL (≈ 1.29 µM) | 100% | 100% | 100% | 100% | –
7 | CCSCCC(C)n1c(C)c(C(=O)c2ccccc2)c2ccccc21 (centres unmarked) [(409), 3-Benzoyl-1-(4-ethylthio-2-butyl)-2-methylindole] | – | – | 0.25 µg/mL (≈ 0.711 µM) | 100% | 48.8% | 100% | 100% | –
8 | CCCCC(C)n1c(C)c(C(=O)c2ccccc2)c2ccccc21 (centres unmarked) [(705), 3-Benzoyl-1-(2-hexyl)-2-methylindole] | 0% | 0 mm | – | – | – | – | – | –
9 | CCCCCC(C)n1c(C)c(C(=O)c2ccccc2)c2ccccc21 (stereo not drawn) [(706), 3-Benzoyl-l-(2-heptyl)-2-methylindole] | 16.7% | 0.1 mm | – | – | – | – | – | –
10 | CC(=O)C(C)n1c(C)c(C(=O)c2ccccc2)c2ccccc21 (stereo not drawn) [(800), 3-Benzoyl-2-methyl-l-(3-oxo-2-butyl)indole] | – | – | 0.05 to 0.1 µg/mL (≈ 0.164 to 0.327 µM) | 100% | 66.7% | 100% | 48.4% | –
11 | CC(C)c1[nH]c2ccccc2c1C(=O)c1cccnc1 [Comparison 3, reference compound] | 100% | 7.9 ± 2.3 mm | 0.075 µg/mL (≈ 0.284 µM) | – | – | – | – | Incidence [2, 8]: 66.7%; Ulcer Index (mm ± S.E.) [2, 8]: 1.5 ± 0.6 mm
12 | CC(C)c1[nH]c2ccccc2c1C(=O)c1cccnc1 [drawing 4, reference compound] | – | – | – | – | – | – | – | action of inhibiting platelet aggregation (platelet aggregation [5]): has an action of inhibiting platelet aggregation; tendency to induce ulcer formation ([2]; general statement on investigations of the present inventors, test not specified): unnegligible tendency to induce ulcer formation
